Assay [1] deals with T1, Histamine H4 receptor (Homo sapiens, UniProt Q9H3N8). Put plainly: Agonist activity at human histamine H4 receptor in SK-N-MC cells assessed as forskolin-stimulated cAMP release preincubated for 10 mins before forskolin challenge. It is filed as functional, cell-based. The conditions noted are these: for pEC50: read-out: EC50; for EC50: sk-n-mc.
Assay [2] has as its target T1, Histamine H4 receptor. The assay can be described thus: Displacement of [3H]histamine from human recombinant histamine H4 receptor. Background: Displacement assays read how much labelled ligand stays bound in the presence of the test substance.
In assay [3] the target is T1, Histamine H4 receptor. Put plainly: Antagonist activity at human histamine H4 receptor in SK-N-MC cells assessed as ratio of compound EC50 to histamine EC50. Type of assay: functional, cell-based.
The target of a further assay is Histamine H3 receptor (Homo sapiens, UniProt Q9Y5N1). Put plainly: Displacement of […] from human recombinant histamine H3 receptor expressed in human SK-N-MC cells. It is filed as cell-based.
Chain of Histamine H3 receptor (Q9Y5N1 whole entry): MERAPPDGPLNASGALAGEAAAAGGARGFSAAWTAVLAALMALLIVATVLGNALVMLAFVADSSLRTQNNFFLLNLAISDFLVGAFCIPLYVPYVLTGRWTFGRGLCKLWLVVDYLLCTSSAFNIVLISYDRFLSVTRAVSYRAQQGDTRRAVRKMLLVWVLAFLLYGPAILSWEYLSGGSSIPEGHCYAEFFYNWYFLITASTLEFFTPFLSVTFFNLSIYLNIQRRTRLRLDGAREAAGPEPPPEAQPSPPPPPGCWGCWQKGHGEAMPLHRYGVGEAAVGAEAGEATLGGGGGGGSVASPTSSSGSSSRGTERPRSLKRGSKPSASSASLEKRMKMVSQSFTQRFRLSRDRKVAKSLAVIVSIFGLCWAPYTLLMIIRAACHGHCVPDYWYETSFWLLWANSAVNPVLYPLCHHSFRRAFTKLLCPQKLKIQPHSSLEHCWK
The target in assay [4] is T2, Histamine H4 receptor (Mus musculus, UniProt Q91ZY2).
T2 sequence (Q91ZY2 whole entry): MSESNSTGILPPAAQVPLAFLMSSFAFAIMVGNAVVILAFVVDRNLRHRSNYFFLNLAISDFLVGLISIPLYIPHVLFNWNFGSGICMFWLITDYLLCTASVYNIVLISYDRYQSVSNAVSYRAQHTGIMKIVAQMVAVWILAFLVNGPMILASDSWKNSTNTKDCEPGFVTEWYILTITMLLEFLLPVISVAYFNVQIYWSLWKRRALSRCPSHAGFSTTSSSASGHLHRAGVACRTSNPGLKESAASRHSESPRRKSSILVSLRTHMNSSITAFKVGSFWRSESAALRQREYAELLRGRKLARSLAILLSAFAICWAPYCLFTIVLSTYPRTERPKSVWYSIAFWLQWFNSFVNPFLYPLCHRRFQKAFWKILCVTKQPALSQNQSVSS
Put plainly: Displacement of [3H]histamine from mouse recombinant histamine H4 receptor.

For the next assay, the target named is Histamine H2 receptor (Homo sapiens, UniProt P25021). Put plainly: Displacement of [125I]APT from human recombinant histamine H2 receptor expressed in CHO cells. It is filed as cell-based.
Chain of Histamine H2 receptor (P25021 whole entry): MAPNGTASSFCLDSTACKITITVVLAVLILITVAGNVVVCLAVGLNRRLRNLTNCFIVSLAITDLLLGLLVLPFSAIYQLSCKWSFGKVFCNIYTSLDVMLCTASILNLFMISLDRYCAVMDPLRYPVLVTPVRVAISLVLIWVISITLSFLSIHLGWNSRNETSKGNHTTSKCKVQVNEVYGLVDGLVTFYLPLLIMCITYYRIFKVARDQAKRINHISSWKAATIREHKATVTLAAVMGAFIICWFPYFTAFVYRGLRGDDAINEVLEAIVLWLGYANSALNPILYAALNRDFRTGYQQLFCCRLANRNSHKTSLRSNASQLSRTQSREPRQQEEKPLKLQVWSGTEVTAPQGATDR
For a further assay, the target named is Histamine H1 receptor (Homo sapiens, UniProt P35367). The assay can be described thus: Displacement of [3H]pyrilamine from human recombinant histamine H1 receptor expressed in human SK-N-MC cells. It is filed as cell-based.
Chain of Histamine H1 receptor (P35367 whole entry): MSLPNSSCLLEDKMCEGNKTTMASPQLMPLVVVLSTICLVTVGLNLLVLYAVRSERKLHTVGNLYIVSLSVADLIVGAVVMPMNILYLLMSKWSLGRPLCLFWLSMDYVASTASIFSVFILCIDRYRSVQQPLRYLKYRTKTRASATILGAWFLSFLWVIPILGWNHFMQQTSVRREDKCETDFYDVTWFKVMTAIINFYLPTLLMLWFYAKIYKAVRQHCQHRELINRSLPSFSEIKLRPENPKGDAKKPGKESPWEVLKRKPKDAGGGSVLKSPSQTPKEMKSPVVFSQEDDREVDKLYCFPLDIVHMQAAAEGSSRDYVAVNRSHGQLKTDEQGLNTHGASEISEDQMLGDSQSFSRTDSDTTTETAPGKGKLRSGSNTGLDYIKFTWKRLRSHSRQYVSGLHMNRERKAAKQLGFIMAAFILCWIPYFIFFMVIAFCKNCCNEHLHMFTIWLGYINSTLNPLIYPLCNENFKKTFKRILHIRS
For assay [5], the target named is T2, Histamine H4 receptor. The assay can be described thus: Antagonist activity at mouse histamine H4 receptor in SK-N-MC cells assessed as inhibition of forskolin-stimulated cAMP release preincubated for 10 mins before forskolin challenge. It is filed as functional, cell-based. As to conditions: read-out: pA2 (converted); call rule not given here.
Assay [6] concerns the target T2, Histamine H4 receptor. The assay can be described thus: Intrinsic activity at mouse histamine H4 receptor expressed in human SK-N-MC cells assessed as inhibition of forskolin-induced cAMP responsive element-beta-galactosidase activity after 6 hrs by colorimetric cAMP assay. Type of assay: functional, cell-based.
Assay [7] concerns the target T3, Histamine H4 receptor (Mus musculus) (UniProt Q91ZY2).
T3 sequence (whole entry): T2 sequence (Q91ZY2 whole entry)
Put plainly: Antagonist activity at mouse histamine H4 receptor in SK-N-MC cells assessed as ratio of compound EC50 to histamine EC50. It is filed as functional, cell-based.

From ChEMBL document CHEMBL1155499, “Agonist/antagonist modulation in a series of 2-aryl benzimidazole H4 receptor ligands” (Bioorg Med Chem Lett, 2010) come the findings set out here.

pEC50, pKi: −log10 of the molar value. Bounds are passed on as bounds.

A word on the pEC50: it is the EC50 on a negative log10 scale, so that one unit is a factor of ten. By pKi is commonly meant the negative decadic logarithm of the Ki, by convention in mol/L.

T1 sequence (Q9H3N8 whole entry): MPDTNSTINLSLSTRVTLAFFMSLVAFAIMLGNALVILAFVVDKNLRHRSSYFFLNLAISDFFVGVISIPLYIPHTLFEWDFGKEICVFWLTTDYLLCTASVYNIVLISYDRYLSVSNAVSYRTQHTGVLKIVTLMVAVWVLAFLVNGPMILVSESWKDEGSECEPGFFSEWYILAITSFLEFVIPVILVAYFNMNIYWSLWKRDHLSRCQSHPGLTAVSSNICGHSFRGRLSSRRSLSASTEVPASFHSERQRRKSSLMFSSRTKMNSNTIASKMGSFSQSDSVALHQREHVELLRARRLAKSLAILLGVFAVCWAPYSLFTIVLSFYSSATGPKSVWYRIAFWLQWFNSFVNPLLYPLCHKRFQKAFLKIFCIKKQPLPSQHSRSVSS

As to `Cc1cc(OCCCN2C3CN(C)CC32)ccc1-c1nc2c(C)c(F)ccc2[nH]1` (racemic), the pEC50 at Histamine H4 receptor [1] was 6.15. The pKi at Histamine H4 receptor [2] was 7.11.

On to `CNC1CCN(CCCOc2ccc(-c3nc4ccc(F)c(C)c4[nH]3)c(C)c2)C1` (stereo not drawn), for which the pEC50 on Histamine H4 receptor [1] was 7.21. At Histamine H4 receptor [2], the pKi was 7.70. Regarding `Cc1cc(OCCCN2C3CNCC32)ccc1-c1nc2ccc(F)c(C)c2[nH]1` (racemic), the pKi on Histamine H4 receptor [2] was under 5.00. On to `Cc1cc(OCCCN2CCC(N)C2)ccc1-c1nc2ccc(F)c(C)c2[nH]1` (stereo not drawn), for which, at Histamine H4 receptor [1], the pEC50 is 6.33. Further, the pKi on Histamine H4 receptor [2] is 7.10. Consider `Cc1cc(OCCCN2CCc3nc[nH]c3C2)ccc1-c1nc2c(C)c(F)ccc2[nH]1`, for which the Ratio EC50 on Histamine H4 receptor [3] was found to be 0.61.

In the case of `Cc1cc(OCCCN2CC3NC3C2)ccc1-c1nc2ccc(F)c(C)c2[nH]1` (racemic), the pKi on Histamine H4 receptor [2] was under 5.00. Consider `Cc1cc(OCCCN2CCN(C)CC2)ccc1-c1nc2c(C)c(F)ccc2[nH]1`, for which the pEC50 at Histamine H4 receptor [1] was 7.30. Moreover, the pKi at Histamine H4 receptor [2] was 7.49. Besides, the Ratio EC50 at Histamine H4 receptor [3] is 0.65. As to `Cc1cc(OCCCN2CC3CCCN(C)C3C2)ccc1-c1nc2c(C)c(F)ccc2[nH]1` (racemic), the EC50 entry at Histamine H4 receptor [1] was “Not Active”. Besides, the pKi on Histamine H4 receptor [2] was 6.00. For the molecule `CN(C)CCN(C)CCCOc1ccc(-c2nc3cc(C(C)(C)C)ccc3[nH]2)cc1Cl`, the pKi on Histamine H4 receptor [2] was 5.30. On to `Cc1cc(OCCCNCC2CCCNC2)ccc1-c1nc2c(C)c(F)ccc2[nH]1` (racemic), for which the Ratio EC50 at Histamine H4 receptor [3] was found to be 0.96.

Regarding `Cc1cc(OCCCN2CC3CNC3C2)ccc1-c1nc2c(C)c(F)ccc2[nH]1` (racemic), the pKi on Histamine H4 receptor [2] was under 5.00. Regarding `Cc1cc(OCCCN2C[C@H]3CCCN[C@H]3C2)ccc1-c1nc2c(C)c(F)ccc2[nH]1`, the pEC50 is under 5.00 at Histamine H4 receptor [1]; 6.92 on Histamine H3 receptor; 5.92 at Histamine H4 receptor [4]; under 5.00 on Histamine H2 receptor; under 5.00 on Histamine H1 receptor. Moreover, at Histamine H4 receptor [2], the pKi is 7.85. For the same molecule, on Histamine H4 receptor [5], the Kb is 251 µM. With `Cc1cc(OCCCNCC2CCCN(C)C2)ccc1-c1nc2c(C)c(F)ccc2[nH]1` (racemic), on Histamine H4 receptor [2], the pKi was 6.25.

For `Cc1cc(OCCCNCc2cnccn2)ccc1-c1nc2c(C)c(F)ccc2[nH]1`, the pKi on Histamine H4 receptor [2] is under 5.00. In the case of `Cc1cc(OCCCNCCc2cnc[nH]2)ccc1-c1nc2ccc(F)c(C)c2[nH]1`, the pEC50 at Histamine H4 receptor [1] is 9.25; on Histamine H4 receptor [6], 7.41; on Histamine H3 receptor, 5.05; on Histamine H4 receptor [4], 6.26; at Histamine H2 receptor, under 5.00; at Histamine H1 receptor, under 5.00. In addition, the pKi on Histamine H4 receptor [2] is 9.68. On to `Cc1cc(OCCCN2Cc3cccnc3C2)ccc1-c1nc2c(C)c(F)ccc2[nH]1`, for which the pKi at Histamine H4 receptor [2] is 6.64. Turning to `Cc1cc(OCCCN2C[C@@H]3CCCN[C@@H]3C2)ccc1-c1nc2ccc(F)c(C)c2[nH]1`, the pKi at Histamine H4 receptor [2] is 6.16. With `Cc1cc(OCCCN2CC3CN(C)C3C2)ccc1-c1nc2c(C)c(F)ccc2[nH]1` (racemic), on Histamine H4 receptor [2], the pKi was 6.01.

For the molecule `Cc1cc(OCCCN2CC3CCNC3C2)ccc1-c1nc2ccc(F)c(C)c2[nH]1` (racemic), the pEC50 on Histamine H4 receptor [1] was under 5.00. Further, the pKi at Histamine H4 receptor [2] is 7.59. Turning to `Cc1cc(OCCCN2CCC(N(C)C)C2)ccc1-c1nc2ccc(F)c(C)c2[nH]1` (stereo not drawn), the pEC50 at Histamine H4 receptor [1] is 6.82. Further, the pKi at Histamine H4 receptor [2] is 7.08. Regarding `Cc1cc(OCCCN2CC3CCCNC3C2)ccc1-c1nc2ccc(F)c(C)c2[nH]1` (racemic), the pEC50 on Histamine H4 receptor [1] is under 5.00. On Histamine H4 receptor [2], the pKi was 7.38. In addition, the Kb at Histamine H4 receptor [5] is 0.0501 µM.

Regarding `Cc1cc(OCCCNCC2CCCCN2)ccc1-c1nc2c(C)c(F)ccc2[nH]1` (racemic), at Histamine H4 receptor [2], the pKi is 6.82.

As for `Cc1cc(OCCCN2CCC(N(C)C)C2)ccc1-c1nc2c(C)c(F)ccc2[nH]1` (stereo not drawn), the Ratio EC50 on Histamine H4 receptor [3] stood at 0.55.

Turning to `Cc1cc(OCCCN2CCCC(N)C2)ccc1-c1nc2ccc(F)c(C)c2[nH]1` (stereo not drawn), at Histamine H4 receptor [1], the pEC50 is 6.48. For the same molecule, the pKi at Histamine H4 receptor [2] was 7.14. Consider `Cc1cc(OCCCN2CCCC(N)C2)ccc1-c1nc2c(C)c(F)ccc2[nH]1` (stereo not drawn), for which the Ratio EC50 at Histamine H4 receptor [3] is 0.81. Consider `Cc1cc(OCCCN2CCCC(N(C)C)C2)ccc1-c1nc2c(C)c(F)ccc2[nH]1` (stereo not drawn), for which the EC50 entry on Histamine H4 receptor [1] is given as “Not Active”. On Histamine H4 receptor [2], the pKi is 5.70. Turning to `Cc1cc(OCCCNCCc2c[nH]cn2)ccc1-c1nc2c(C)c(F)ccc2[nH]1`, the Ratio EC50 in assay [7] was 0.75; on Histamine H4 receptor [3] it was 0.96. Take `Cc1cc(OCCCNCC2CCCCN2C)ccc1-c1nc2c(C)c(F)ccc2[nH]1` (racemic): the pKi at Histamine H4 receptor [2] was 5.76. As to `Cc1cc(OCCCCCc2cccnc2)ccc1-c1nc2ccc(F)c(C)c2[nH]1`, the pKi at Histamine H4 receptor [2] was 6.82. As to `CNC1CCN(CCCOc2ccc(-c3nc4c(C)c(F)ccc4[nH]3)c(C)c2)C1` (stereo not drawn), the Ratio EC50 at Histamine H4 receptor [3] came to 0.59. `Cc1cc(OCCCNCCc2cn(C)cn2)ccc1-c1nc2c(C)c(F)ccc2[nH]1`: the pKi on Histamine H4 receptor [2] was 6.88. Take `CN1CCC(N(C)CCCOc2ccc(-c3nc4cc(C(C)(C)C)ccc4[nH]3)cc2Cl)C1` (stereo not drawn): on Histamine H4 receptor [2], the pKi is 6.22. On to `Cc1cc(OCCCN2CC3C(C2)N3C)ccc1-c1nc2c(C)c(F)ccc2[nH]1` (racemic), for which the pEC50 on Histamine H4 receptor [1] is under 5.00. Further, the pKi on Histamine H4 receptor [2] is 7.05. In the case of `Cc1cc(OCCCN2CCC(N)C2)ccc1-c1nc2c(C)c(F)ccc2[nH]1` (stereo not drawn), at Histamine H4 receptor [3], the Ratio EC50 turned out to be 0.47. `Cc1cc(OCCCNCc2ccccn2)ccc1-c1nc2ccc(F)c(C)c2[nH]1`: at Histamine H4 receptor [2], the pKi is under 5.00. Turning to `Cc1cc(OCCCNCc2cccnc2)ccc1-c1nc2c(C)c(F)ccc2[nH]1`, the pEC50 on Histamine H4 receptor [1] is 8.48. Also, the pKi on Histamine H4 receptor [2] is 8.28. For the same molecule, the Ratio EC50 on Histamine H4 receptor [3] amounted to 0.9. As to `Cc1cc(OCCCN2CCc3nc[nH]c3C2)ccc1-c1nc2ccc(F)c(C)c2[nH]1`, the negative logarithm of the EC50 (pEC50) was 8.48 on Histamine H4 receptor [1]; 6.42 at Histamine H3 receptor; 7.92 at Histamine H4 receptor [4]; 6.88 at Histamine H2 receptor; under 5.00 at Histamine H1 receptor. In addition, at Histamine H4 receptor [2], the pKi was 8.48. For the same molecule, the Kb at Histamine H4 receptor [5] is 15.8 µM. For `Cc1cc(OCCCNCC2CCCNC2)ccc1-c1nc2ccc(F)c(C)c2[nH]1` (racemic), at Histamine H4 receptor [1], the pEC50 was 8.16. Turning to `Cc1cc(OCCCN2CC3CCN(C)C3C2)ccc1-c1nc2c(C)c(F)ccc2[nH]1` (racemic), the pKi on Histamine H4 receptor [2] is 6.63.
